Experimental data: patent publication US10723741B1, “DNA polymerase IIIC inhibitors and use thereof” (Acurx Pharmaceuticals, LLC, priority 2018, dated 2020)
In brackets after ≈: the same amount, converted by molar mass. Where two headings read alike, the source gives them in different places.

How the values were obtained:
Format in all cases: cell-based
[1] = tested on: Streptococcus pneumoniae ATCC 49619; experiment: Broth microdilution MIC, S. pneumoniae ATCC 49619; settings: ATCC49619, broth microdilution, 37° C., 20 hours, read-out: MIC S. pneumoniae ATCC 49619
Text: (§1) Bacteria tested are Staphylococcus aureus NRS384 (a methicillin-resistant Staphylococcus aureus, MRSA), Staphylococcus aureus ATCC 29213 (a methicillin-sensitive Staphylococcus aureus, MSSA), Streptococcus pneumoniae ATCC 49619, Enterococcus faecalis ATCC 29212, Enterococcus faecium ATCC 700221 (a vancomycin-resistant enterococcus, VRE), Bacillus subtilis ATCC 6633, and Escherichia coli ATCC 25922.
(§2) Staphylococcus aureus NRS384 was obtained from NARSA (Network on Antimicrobial Resistance in Staphylococcus aureus, now the strain collection is in BEI resources). Other bacterial isolates were from ATCC (The American Type Culture Collection). Upon receiving the bacteria samples from aforementioned institutes, the bacteria were cultured according to the manuals provided by the suppliers. The bacteria were stored in 25% glycerol (final concentration) at −80° C.
(§3) On the day of testing, the compounds were dissolved in pure DMSO (Sigma 276855-1L) to […] as stock. In a v-bottom 96-well plate (Axygen-wipp02280), 20 μl DMSO was added into well 2 to well 12 by manual pipetting. Into well 1, 12.8 μL of compound DMSO stock (20 mg/ml) was added and mixed with 27.2 μl DMSO by pipetting. Two fold serial dilutions were performed by transferring and mixing 20 μl of solution from well 1 to well 2, then well 2 to well 3 and so forth until well 11. The well 12 was loaded with 20 μl DMSO without compounds. This was drug ‘mother plate’. From well 1 to well 12, the drug concentrations in the mother plate were […] in DMSO. A multi-pipette was used to perform the serial dilutions. The concentration may be adjusted according to the potency of the compounds. An Echo® Acoustic liquid handling system may be used to replace manual pipetting to make the daughter plates.
(§4) One day prior to the day of MIC testing, bacterial strains were streaked out from −80° C. glycerol stocks onto MHA plates and incubated at 37° C. for 20 hours. Streptococcus pneumoniae was streaked on blood agar and incubated at 37° C. in 5% CO2. The single colonies were picked by using an inoculation loop (Greiner-731175) and suspended into 5 ml sterile saline. The turbidity of the suspension was adjusted to 0.10 (Siemens MicroScan turbidity meter), equal to ˜1.0×10^8 cfu/ml. The bacterial suspension was diluted 200× in corresponding test medium (Table 1). This was used to inoculate daughter plates.
(§5) For preparing u-bottom 96-well ‘daughter plates’ (Costar 3788), an aliquot of 1 μl solution from mother plate was then replicating transferred into the daughter plate using a multi-pipette.
(§6) An aliquot of 99 μl of the bacterial suspension was inoculated into each well of the daughter plates using a multi-pipette. Each well contained ˜5.0×10^5 cfu/ml bacteria, 1% DMSO and serially diluted compounds at 64, 32, 16, 8, 4, 2, 1, 0.5, 0.25, 0.125, 0.0625 and 0 μg/ml from well 1 to well 12 respectively, in 100 μl corresponding test medium.
(§7) The plates were incubated in ambient atmosphere and in a 37° C. incubator for 20 hours.
(§8) Compounds of the present invention were tested for antibacterial activity against a variety of bacterial organism including Bacillus subtilis, Staphylococcus aureus, Enterococcus faecalis, Enterococcus faecium, Streptococcus pneumoniae and Escherichia coli. […] Compounds described in Examples 2, 44, 53, 56, 90, 134, 212, 213, 214, 218, 222, 304, 305, and 307 had MIC of ≤1 μg/ml against S. aureus NRS 384 (MRSA) (μg/ml) and E. faecium ATCC 700221 (VRE) (μg/ml).

[2] = tested on: Bacillus subtilis ATCC 6633; experiment: Broth microdilution MIC, B. subtilis ATCC 6633; settings: ATCC6633, broth microdilution, 37° C., 20 hours, read-out: MIC B. subtilis ATCC 6633
Text: as §1, §2, §3, §4, §5, §6, §7, §8

[3] = tested on: Escherichia coli ATCC 25922; experiment: Broth microdilution MIC, E. coli ATCC 25922 (MHIIB w & w/o 4 mM EDTA); settings: broth microdilution, 37° C., 20 hours; for MIC: Escherichia coli, ATCC25922, without EDTA, read-out: MIC E. coli ATCC 25922; for MIC E. coli ATCC 25922 + 4 mM EDTA: with 4 mM EDTA
Text: as §1, §2, §3, §4, §5, §6, §7, §8

[4] = tested on: Enterococcus faecalis ATCC 29212; experiment: Broth microdilution MIC, E. faecalis ATCC 29212; settings: ATCC29212, broth microdilution, 37° C., 20 hours, read-out: MIC E. faecalis ATCC 29212
Text: as §1, §2, §3, §4, §5, §6, §7, §8

[5] = tested on: Staphylococcus aureus ATCC 29213 (MSSA); experiment: Broth microdilution MIC, S. aureus ATCC 29213 (MSSA); settings: broth microdilution, 37° C., 20 hours, read-out: MIC S. aureus ATCC 29213 (MSSA)
Text: as §1, §2, §3, §4, §5, §6, §7, §8

[6] = tested on: Staphylococcus aureus NRS384 (MRSA); experiment: Broth microdilution MIC, S. aureus NRS384 (MRSA); settings: Staphylococcus aureus, broth microdilution, 37° C., 20 hours
Text: as §1, §2, §3, §4, §5, §6, §7, §8

[7] = tested on: Enterococcus faecium ATCC 700221 (VRE); experiment: Broth microdilution MIC, E. faecium ATCC 700221 (VRE); settings: Enterococcus faecium, broth microdilution, 37° C., 20 hours
Text: as §1, §2, §3, §4, §5, §6, §7, §8

[8] = read-out: MIC E. faecium ATCC 700221 (VRE)
[9] = S. aureus NRS 384, read-out: MIC NRS 384 (MRSA)

| SMILES | MIC [1] [µg/mL] | MIC [2] [µg/mL] | MIC [3] [µg/mL] | MIC E. coli ATCC 25922 + 4 mM EDTA [3] | MIC [4] [µg/mL] | MIC [5] [µg/mL] | MIC ([6]; read-out: MIC NRS 384 (MRSA)) [µg/mL] | MIC [7, 8] [µg/mL] | MIC [6, 9] [µg/mL] | MIC ([6]; MHIIB, read-out: MIC against S. aureus NRS 384 (MRSA)) [µg/mL] | MIC ([7]; MHIIB, read-out: MIC against E. faecium ATCC 700221 (VRE)) [µg/mL] |
| --- | --- | --- | --- | --- | --- | --- | --- | --- | --- | --- | --- |
| Cl.O=c1[nH]c(NCc2ccc(Cl)c(Cl)c2)nc2cn(Cn3cncn3)nc12 [Compound 103, 2-((1H-1,2,4-triazol-1-yl)methyl)-5-((3,4-dichlorobenzyl)amino)-2H-pyrazolo[4,3-d]pyrimidin-7(6H)-one hydrochloride] | 16 | 32 | > 64 | 64 µg/mL | > 64 | 64 | 64 | 64 | – | – | – |
| Cl.O=c1[nH]c(NCc2ccc(Cl)c(Cl)c2)nc2cnn(CC3(CO)CCNCC3)c12 [Compound 195, 5-((3,4-dichlorobenzyl)amino)-1-((4-(hydroxymethyl)piperidin-4-yl)methyl)-1H-pyrazolo[4,3-d]pyrimidin-7(6H)-one hydrochloride] | 16 | 8 | > 64 | >64 µg/mL | 64 | > 64 | > 64 | 64 | – | – | – |
| O=C1CCCN1CCn1ncc2nc(NCc3ccc(Cl)c(Cl)c3)[nH]c(=O)c21 [Compound 94, 5-((3,4-Dichlorobenzyl)amino)-1-(2-(2-oxopyrrolidin-1-yl)ethyl)-1H-pyrazolo[4,3-d]pyrimidin-7(6H)-one] | 4 (≈ 9.49 µM) | 8 (≈ 19 µM) | > 64 | >64 µg/mL | 16 (≈ 38 µM) | 16 (≈ 38 µM) | 16 (≈ 38 µM) | 4 (≈ 9.49 µM) | – | – | – |
| O=C(c1cccnc1)N1CCC(n2nc(F)c3nc(NCc4ccc(Cl)c(Cl)c4)[nH]c(=O)c32)CC1 [Compound 317, 5-[(3,4-Dichlorophenyl)methylamino]-3-fluoro-1-[1-(pyridine-3-carbonyl)-4-piperidyl]-6H-pyrazolo[4,3-d]pyrimidin-7-one] | 4 (≈ 7.75 µM) | 1 (≈ 1.94 µM) | > 64 | >64 µg/mL | 4 (≈ 7.75 µM) | 4 (≈ 7.75 µM) | – | 2 (≈ 3.87 µM) | 4 (≈ 7.75 µM) | – | – |
| N#Cc1nn(CCOCCO)c2c(=O)[nH]c(NCc3ccc(Cl)c(Cl)c3)nc12 [Compound 51, 5-((3,4-dichlorobenzyl)amino)-1-(2-(2-hydroxyethoxy)ethyl)-7-oxo-6,7-dihydro-1H-pyrazolo[4,3-d]pyrimidine-3-carbonitrile] | 2 (≈ 4.73 µM) | 1 (≈ 2.36 µM) | > 64 | >64 µg/mL | 2 (≈ 4.73 µM) | 2 (≈ 4.73 µM) | 2 (≈ 4.73 µM) | 0.5 (≈ 1.18 µM) | – | – | – |
| Cn1ncc2nc(NCc3cccc(Cl)c3Cl)[nH]c(=O)c21 [Compound 29, 5-((2,3-Dichlorobenzyl)amino)-1-methyl-1H-pyrazolo[4,3-d]pyrimidin-7(6H)-one] | > 64 | > 64 | > 64 | >64 µg/mL | > 64 | > 64 | > 64 | > 64 | – | – | – |
| COc1ccc(Cn2ncc3nc(NCc4ccc(Cl)c(Cl)c4)[nH]c(=O)c32)cc1OC [Compound 190, 5-((3,4-Dichlorobenzyl)amino)-1-(3,4-dimethoxybenzyl)-1H-pyrazolo[4,3-d]pyrimidin-7(6H)-one] | > 64 | > 64 | > 64 | >64 µg/mL | > 64 | > 64 | > 64 | > 64 | – | – | – |
| CC(C)(CCCn1ncc2nc(NCc3ccc(Cl)c(Cl)c3)[nH]c(=O)c21)C(=O)O [Compound 199, 5-(5-((3,4-Dichlorobenzyl)amino)-7-oxo-6,7-dihydro-1H-pyrazolo[4,3-d]pyrimidin-1-yl)-2,2-dimethylpentanoic acid] | 8 (≈ 18.3 µM) | 32 (≈ 73 µM) | > 64 | >64. ug/ml | 16 (≈ 36.5 µM) | 16 (≈ 36.5 µM) | 16 (≈ 36.5 µM) | 8 (≈ 18.3 µM) | – | – | – |
| [2H]C([2H])(O)COCCn1ncc2nc(NCc3ccc(Cl)c(Cl)c3)[nH]c(=O)c21 [Compound 286, 5-[(3,4-dichlorophenyl)methylamino]-1-[2-(2,2-dideuterio-2-hydroxyl-ethoxy)ethyl]-6H-pyrazolo[4,3-d]pyrimidin-7-one] | 4 (≈ 9.99 µM) | 4 (≈ 9.99 µM) | > 64 | >64 µg/mL | 4 (≈ 9.99 µM) | 8 (≈ 20 µM) | 8 (≈ 20 µM) | 2 (≈ 5 µM) | – | – | – |
| COCCn1nc(F)c2nc(NCc3ccc(Cl)c(Cl)c3)[nH]c(=O)c21 [Compound 305, 5-((3,4-Dichlorobenzyl)amino)-3-fluoro-1-(2-methoxyethyl)-1H-pyrazolo[4,3-d]pyrimidin-7(6H)-one] | 4 (≈ 10.4 µM) | 0.5 (≈ 1.29 µM) | > 64 | >64 µg/mL | 2 (≈ 5.18 µM) | 1 (≈ 2.59 µM) | – | 1 (≈ 2.59 µM) | 1 (≈ 2.59 µM) | ≤ 1 | ≤ 1 |
